Reference: ChEMBL document CHEMBL4725408, “Antibacterial Spiropyrimidinetriones with N-Linked Azole Substituents on a Benzisoxazole Scaffold Targeting DNA Gyrase” (J Med Chem, 2020)
pIC50: −log10 of the molar value. In brackets after ≈: the same amount, converted by molar mass. Activity calls are given as the source filed them. The calls are words filed in the database; no cut-off is given here.

Legend:
[1] = Solubility of the compound by high throughput solubility assay; assay type: physicochemical
Haemophilus influenzae = assay: Antibacterial activity against Haemophilus influenzae ARC737 by broth microdilution method; assay type: functional
Streptococcus pyogenes = assay: Antibacterial activity against Streptococcus pyogenes ARC838 by broth microdilution method; assay type: functional
L5178Y = assay: Genotoxicity in mouse L5178Y cells using DAPI staining by microscopy based micronucleation assay; assay type: toxicity, cell-based
Staphylococcus aureus [2] = assay: Antibacterial activity against methicillin/quinolone-resistant Staphylococcus aureus ARC517 by broth microdilution method; assay type: functional
Staphylococcus aureus [3] = assay: Antibacterial activity against methicillin sensitive Staphylococcus aureus ARC516 in presence of human serum by broth microdilution method; assay type: functional
Staphylococcus aureus [4] = assay: Antibacterial activity against methicillin sensitive Staphylococcus aureus ARC516 by broth microdilution method; assay type: functional
[5] = Plasma clearance in Wistar Han rat at 3 mg/kg, iv administered as 15 mins infusion by LC-MS/MS analysis; assay type: ADME, organism-based; set-up: unit not given here; conditions: in vivo, 0.25 h
Streptococcus pneumoniae = assay: Antibacterial activity against Streptococcus pneumoniae ARC548 by broth microdilution method; assay type: functional
Escherichia coli = assay: Antibacterial activity against Escherichia coli ARC523 by broth microdilution method; assay type: functional
[6] = Unbound plasma clearance in Wistar Han rat at 3 mg/kg, iv administered as 15 mins infusion by LC-MS/MS analysis; assay type: ADME, organism-based; set-up: unit not given here; conditions: in vivo, 0.25 h
[7] = Protein binding in human plasma assessed as unbound fraction at 10 uM measured after 16 hrs by LC-MS/MS based equilibrium dialysis method; assay type: ADME, cell-free
[8] = n-octanol/phosphate buffer partition coefficient, log D of the compound at pH 7.4 measured after 1 hr by UV-LC/MS based shake flask method; assay type: physicochemical
[9] = Inhibition of recombinant Escherichia coli DNA gyrase AB expressed in Escherichia coli BL21 (DE3) using relaxed pJT519 DNA as substrate preincubated for 20 mins followed by 5'-BODIPY-TMR-TTCTTCTTCT addition and measured after 1 hr by fluorescence anisotropy
Staphylococcus aureus [10] = assay: Antibacterial activity against methicillin sensitive Staphylococcus aureus ARC516 infected in CD-1 mouse neutropenic thigh infection model assessed as reduction in colony forming unit at 10 to 25 mg/kg, ip measured after 24 hrs; assay type: functional, organism-based
[11] = Half life in Wistar Han rat at 3 mg/kg, iv administered as 15 mins infusion by LC-MS/MS analysis; assay type: ADME, organism-based; conditions: in vivo
Staphylococcus aureus [12] = assay: Antibacterial activity against methicillin sensitive Staphylococcus aureus ARC516 infected in CD-1 mouse neutropenic thigh infection model assessed as log reduction in colony forming unit at 50 to 75 mg/kg, ip measured after 24 hrs relative to untreated control; assay type: functional; conditions: dose mg/kg 50-75
[13] = Oral bioavailability in CD-1 mouse at 10 mg/kg by LC-MS/MS analysis; assay type: ADME, organism-based; conditions: in vivo
[14] = Plasma clearance in CD-1 mouse at 3 mg/kg, iv administered as 15 mins infusion by LC-MS/MS analysis; assay type: ADME, organism-based; conditions: in vivo, 0.25 h
[15] = Protein binding in mouse plasma assessed as unbound fraction at 10 uM measured after 16 hrs by LC-MS/MS based equilibrium dialysis method; assay type: ADME, cell-free
[16] = Protein binding in rat plasma assessed as unbound fraction at 10 uM measured after 16 hrs by LC-MS/MS based equilibrium dialysis method; assay type: ADME, cell-free
[17] = Volume of distribution at steady state in Wistar Han rat at 3 mg/kg, iv administered as 15 mins infusion by LC-MS/MS analysis; assay type: ADME, organism-based; conditions: in vivo, read-out: Vdss
[18] = Oral bioavailability in Wistar Han rat at 10 mg/kg by LC-MS/MS analysis; assay type: ADME, organism-based; conditions: in vivo
Staphylococcus aureus [19] = assay: Antibacterial activity against methicillin sensitive Staphylococcus aureus ARC516 infected in CD-1 mouse neutropenic thigh infection model assessed as log reduction in colony forming unit at 50 to 75 mg/kg, ip measured after 24 hrs relative to initial treatment control; assay type: functional; conditions: dose mg/kg 50-75
[20] = Unbound plasma clearance in CD-1 mouse at 3 mg/kg, iv administered as 15 mins infusion by LC-MS/MS analysis; assay type: ADME, organism-based; conditions: in vivo, 0.25 h
[21] = Ratio of MIC for antibacterial activity against methicillin/quinolone-resistant Staphylococcus aureus ARC517 to protein binding in human plasma assessed as unbound fraction

Row | Compound | solubility [1] | MIC (Haemophilus influenzae) | MIC (Streptococcus pyogenes) | NOAEL (L5178Y) | MIC (Staphylococcus aureus [2]) | MIC (Staphylococcus aureus [3]) | MIC (Staphylococcus aureus [4]) | CL [5] | MIC (Streptococcus pneumoniae) | MIC (Escherichia coli) | CL free [6] | fraction unbound at 16 h, 10 µM [7] | logD at 1 h [8] | pIC50 [9] | further results
1 | COCc1ncnn1-c1noc2c(F)c3c(cc12)CC1(C(=O)NC(=O)NC1=O)[C@H]1[C@H](C)O[C@H](C)CN31 | 890 µM (≈ 445 µg/mL) | 0.78 µM (≈ 0.39 µg/mL) | 0.78 µM (≈ 0.39 µg/mL) | 12 µM | 0.39 µM (≈ 0.195 µg/mL) | 0.39 µM | < 0.2 µM | 17 | 0.78 µM (≈ 0.39 µg/mL) | 70 µM (≈ 35 µg/mL) | 120 | 0.14 | 1.7 | 5.96 | –
2 | C[C@@H]1CN2c3c(cc4c(-n5cncn5)noc4c3F)CC3(C(=O)NC(=O)NC3=O)[C@H]2[C@H](C)O1 | 250 µM (≈ 114 µg/mL) | 0.39 µM (≈ 0.178 µg/mL) | 0.39 µM (≈ 0.178 µg/mL) | < 6 µM | 0.2 µM (≈ 0.0911 µg/mL) | < 0.2 µM | 0.049 µM (≈ 0.0223 µg/mL) | – | 0.39 µM (≈ 0.178 µg/mL) | 12.5 µM (≈ 5.69 µg/mL) | – | 0.13 | 1.7 | 6.66 | Activity (Staphylococcus aureus [10]): Active; half-life [11]: 2.41 h; log(activity) (Staphylococcus aureus [12]): 4; bioavailability [13]: 37%; CL [14]: 1.26 mL/h/kg; fraction unbound at 16 h, 10 µM [15]: 0.12; fraction unbound at 16 h, 10 µM [16]: 0.1; Vd [17]: 1.9 L/kg; bioavailability [18]: 62%; log(activity) (Staphylococcus aureus [19]): >2; CL free [20]: 10.5 mL/h/kg; Ratio [21]: 1.4
3 | C[C@@H]1CN2c3c(cc4c(-n5ncnc5CO)noc4c3F)CC3(C(=O)NC(=O)NC3=O)[C@H]2[C@H](C)O1 | > 1000 µM | 0.78 µM (≈ 0.379 µg/mL) | 0.78 µM (≈ 0.379 µg/mL) | 12 µM | 1.6 µM (≈ 0.777 µg/mL) | 0.49 µM | 0.31 µM (≈ 0.15 µg/mL) | 37 | 0.39 µM (≈ 0.189 µg/mL) | 50 µM (≈ 24.3 µg/mL) | 220 | 0.17 | 1.4 | 6.72 | –
4 | C[C@@H]1CN2c3c(cc4c(-n5cncn5)noc4c3Cl)CC3(C(=O)NC(=O)NC3=O)[C@H]2[C@H](C)O1 | 420 µM (≈ 198 µg/mL) | 0.78 µM (≈ 0.368 µg/mL) | 0.39 µM (≈ 0.184 µg/mL) | < 6 µM | 0.39 µM (≈ 0.184 µg/mL) | 0.39 µM | < 0.2 µM | 11.6 | 0.39 µM (≈ 0.184 µg/mL) | 12 µM (≈ 5.66 µg/mL) | 156 | 0.074 | 2 | 6.92 | –
5 | CNc1ncnn1-c1noc2c(F)c3c(cc12)CC1(C(=O)NC(=O)NC1=O)[C@H]1[C@H](C)O[C@H](C)CN31 | 280 µM (≈ 136 µg/mL) | 0.39 µM (≈ 0.189 µg/mL) | 0.19 µM (≈ 0.092 µg/mL) | 3 µM | 0.2 µM (≈ 0.0969 µg/mL) | < 0.2 µM | 0.049 µM (≈ 0.0237 µg/mL) | 32 | 0.19 µM (≈ 0.092 µg/mL) | 16 µM (≈ 7.75 µg/mL) | 190 | 0.08 | 2.1 | 7.15 | –
